The values below are quoted from earlier work in patent US8840932B2, “Antiseptic compositions and methods” (priority 2002, dated 2014).

For the data set the following is noted: 25° C.

Take `II` [elemental iodine, iodine]: the solubility in water is reported as 0.03 wt-%.
